≈ marks a conversion by molar mass, not a printed value.
What was measured:
[1] = tested on: S. flexneri 1a; experiment: MIC, broth microdilution (CLSI); type: cell-based; details: Shigella flexneri, enteric pathogens
Experimental: (§1) The minimum inhibitory concentration (MIC) of the peptides (in uM/ml) and control antibiotics (vancomycin and gentamicin) in μg/mL, were determined using the broth microdilution method according to the guidelines of the Clinical and Laboratory Standards Institute (CLSI) guidelines. See CLSI. 2007. Methods for dilution antimicrobial susceptibility tests for bacteria that grow aerobically; approved standard M7-A7. CLSI, Wayne, Pa.

[2] = tested on: S. aureus RN 4220; experiment: MIC, broth microdilution (CLSI); type: cell-based; details: Staphylococcus aureus, RN4220
Experimental: as §1

[3] = tested on: S. aureus NRS 382; experiment: microbe, parasite or virus in culture; details: Staphylococcus aureus, NRS382
[4] = tested on: VRSA 10; experiment: microbe, parasite or virus in culture; details: Staphylococcus aureus
[5] = tested on: K. pneumonia NR 41928; experiment: microbe, parasite or virus in culture; details: Klebsiella pneumoniae, NR41928
[6] = tested on: S. enteritidis; experiment: microbe, parasite or virus in culture; details: Salmonella enterica
[7] = tested on: E. cloacae 1134; experiment: microbe, parasite or virus in culture; details: Enterobacter cloacae
[8] = tested on: S. typhimurium LT2; experiment: microbe, parasite or virus in culture; details: Salmonella enterica
[9] = tested on: P. aeruginosa 31041; experiment: microbe, parasite or virus in culture; details: Pseudomonas aeruginosa
[10] = tested on: VRSA 5; experiment: microbe, parasite or virus in culture; details: Staphylococcus aureus
[11] = tested on: K. pneumonia NR 41920; experiment: microbe, parasite or virus in culture; details: Klebsiella pneumoniae, NR41920
[12] = tested on: S. aureus NRS 384; experiment: microbe, parasite or virus in culture; details: Staphylococcus aureus, NRS384
[13] = tested on: E. faecium 700221; experiment: microbe, parasite or virus in culture; details: Enterococcus faecium
[14] = tested on: S. aureus NRS 383; experiment: microbe, parasite or virus in culture; details: Staphylococcus aureus, NRS383
[15] = tested on: A. baumannii 1605; experiment: microbe, parasite or virus in culture; details: Acinetobacter baumannii
[16] = tested on: K. pneumoniae 1706; experiment: microbe, parasite or virus in culture; details: Klebsiella pneumoniae
[17] = tested on: E. coli 21922; experiment: microbe, parasite or virus in culture; details: Escherichia coli
[18] = tested on: A. baumannii 1747; experiment: microbe, parasite or virus in culture; details: Acinetobacter baumannii
[19] = tested on: A baumannii 19606; experiment: microbe, parasite or virus in culture; details: Acinetobacter baumannii
[20] = tested on: P. aeruginosa 48982; experiment: microbe, parasite or virus in culture; details: Pseudomonas aeruginosa
[21] = tested on: P. aeruginosa 31040; experiment: microbe, parasite or virus in culture; details: Pseudomonas aeruginosa
[22] = tested on: S. epidermidis NRS 101; experiment: microbe, parasite or virus in culture; details: Staphylococcus epidermidis, NRS101
[23] = tested on: P. aeruginosa 50573; experiment: microbe, parasite or virus in culture; details: Pseudomonas aeruginosa
[24] = tested on: L. monocytogenes 191112; experiment: microbe, parasite or virus in culture; details: Listeria monocytogenes
[25] = tested on: S. aureus ATCC 6538; experiment: microbe, parasite or virus in culture; details: Staphylococcus aureus, ATCC6538

For `CN[C@H](CC(C)C)C(=O)N[C@H]1C(=O)N[C@@H](CC(N)=O)C(=O)N[C@H]2C(=O)N[C@H]3C(=O)N[C@H](C(=O)N[C@H](C(=O)O)c4cc(O)cc(O)c4-c4cc3ccc4O)[C@H](O)c3ccc(c(Cl)c3)Oc3cc2cc(c3O[C@@H]2O[C@H](CO)[C@@H](O)[C@H](O)[C@H]2O[C@H]2C[C@](C)(N)[C@H](O)[C@H](C)O2)Oc2ccc(cc2Cl)[C@H]1O` [Vancomycin, vancomycin], the MIC [1] was > 32 µM, the MIC [2] was 0.5 µM (≈ 0.725 µg/mL) and the MIC [3] was 1 µM (≈ 1.45 µg/mL). For the same compound, the MIC [4] was > 32 µM, the MIC [5] was > 32 µM and the MIC [6] was > 32 µM. For the same compound, the MIC [7] was > 32 µM, the MIC [8] was > 32 µM and the MIC [9] was > 32 µM. The MIC [10] was 4 µM (≈ 5.8 µg/mL), the MIC [11] was > 32 µM and the MIC [12] was 0.5 µM (≈ 0.725 µg/mL). For the same compound, the MIC [13] was > 32 µM, the MIC [14] was 4 µM (≈ 5.8 µg/mL) and the MIC [15] was 8 µM (≈ 11.6 µg/mL). For the same compound, the MIC [16] was > 32 µM, the MIC [17] was > 32 µM and the MIC [18] was > 32 µM. The MIC [19] was 32 µM (≈ 46.4 µg/mL), the MIC [20] was > 32 µM and the MIC [21] was > 32 µM. The MIC [22] was 2 µM (≈ 2.9 µg/mL), the MIC [23] was > 32 µM and the MIC [24] was 1 µM (≈ 1.45 µg/mL). For the same compound, the MIC [25] was 0.5 µM (≈ 0.725 µg/mL).

Source: US10875895B2, “Antibacterial cell-penetrating peptides” (Purdue Research Foundation, priority 2018, dated 2020)
